Data from PMC11314063, “Inhibition of DNA Topoisomerase Ι by Flavonoids and Polyacetylenes Isolated from Bidens pilosa L” (Molecules, 2024).
Like-named read-outs stand apart in the source and are kept apart here.

What was measured:
A549 = experiment: SRB cytotoxicity assay, A549; assay type: cell-based; conditions: Homo sapiens, read-out: IC50 Cytotoxicity A549
Text: (§1) The cell lines MDA-MB-231 (No. TCHu227), A549 (No. TCHu150), and HepG2 (No. TCHu72) were obtained from the Cell Bank/Stem Cell Bank, Chinese Academy of Sciences (Shanghai, China). The cell lines DLD-1 (No. CC0507) and HCT116 (No. CC0506) were obtained from the Cell Bank of Cellcook Biotech Co., Ltd. (Guangzhou, China). Cell line HL-7702 (No. BNCC338358) was obtained from Bena Culture Collection (Zhengzhou, China).
(§2) The human cancer cell lines MDA-MB-231 (breast adenocarcinoma), DLD-1 (colorectal adenocarcinoma), A549 (lung epithelial carcinoma), HCT116 (colorectal adenocarcinoma), HepG2 (hepatocellular carcinoma), and human hepatocyte HL-7702 were cultured in Dulbecco’s modified eagle medium (DMEM, Biological Industries, Beit Haemek, Israel) containing 10% (v/v) fetal bovine serum (FBS, Biological Industries, Beit Haemek, Israel) at 37 °C in a humidified incubator (ThermoFisher, Carlsbad, CA, USA) with a 5% CO2 atmosphere.

HCT116 = experiment: SRB cytotoxicity assay, HCT116; assay type: cell-based; conditions: Homo sapiens, read-out: IC50 Cytotoxicity HCT116
Text: as §1, §2

MDA-MB-231 = experiment: SRB cytotoxicity assay, MDA-MB-231; assay type: cell-based; conditions: Homo sapiens, read-out: IC50 Cytotoxicity MDA-MB-231
Text: as §1, §2

HepG2 = experiment: SRB cytotoxicity assay, HepG2; assay type: cell-based; conditions: Homo sapiens, read-out: IC50 Cytotoxicity HepG2
Text: as §1, §2

DLD-1 = experiment: SRB cytotoxicity assay, DLD-1; assay type: cell-based; conditions: Homo sapiens, read-out: IC50 Cytotoxicity DLD-1
Text: as §1, §2

[1] = SRB cytotoxicity assay, hepatocyte HL-7702; assay type: cell-based, human; conditions: SRB assay, 48 h, human hepatocyte, mean ± SD, read-out: IC50 Cytotoxicity HL-7702
Text: as §1, §2

DNA Topo I = target: T1, DNA Topo I (Homo sapiens, UniProt P11387); experiment: Topo I inhibition assay (DNA relaxation assay); assay type: biochemical; conditions: for IC50: DNA relaxation assay, pBR322, mean ± SD; for inhibition at 400 µM: read-out: percentage inhibition on Topo I activity
T1 construct: purchased ThermoFisher, Waltham, MA, USA
T1 sequence (P11387 1-765): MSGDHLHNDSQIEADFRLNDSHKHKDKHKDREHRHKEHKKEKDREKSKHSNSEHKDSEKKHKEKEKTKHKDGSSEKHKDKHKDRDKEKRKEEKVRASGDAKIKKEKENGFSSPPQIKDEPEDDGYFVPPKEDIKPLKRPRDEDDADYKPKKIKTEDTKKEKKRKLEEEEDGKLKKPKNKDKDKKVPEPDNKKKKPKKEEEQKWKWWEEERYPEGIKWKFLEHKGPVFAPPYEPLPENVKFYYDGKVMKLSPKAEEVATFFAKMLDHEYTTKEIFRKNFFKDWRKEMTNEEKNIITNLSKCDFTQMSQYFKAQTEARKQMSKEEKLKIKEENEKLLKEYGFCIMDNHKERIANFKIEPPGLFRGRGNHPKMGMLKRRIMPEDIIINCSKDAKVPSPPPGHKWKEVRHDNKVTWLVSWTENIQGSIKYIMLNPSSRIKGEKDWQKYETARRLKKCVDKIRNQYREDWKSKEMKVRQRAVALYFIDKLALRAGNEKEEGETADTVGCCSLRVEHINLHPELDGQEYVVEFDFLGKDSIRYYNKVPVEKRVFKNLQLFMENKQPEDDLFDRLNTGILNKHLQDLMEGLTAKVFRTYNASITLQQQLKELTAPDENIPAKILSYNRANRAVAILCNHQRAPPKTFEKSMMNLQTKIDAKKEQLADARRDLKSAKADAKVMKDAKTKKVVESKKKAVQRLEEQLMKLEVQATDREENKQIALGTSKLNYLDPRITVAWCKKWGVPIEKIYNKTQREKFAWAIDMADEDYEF
Method: The DNA relaxation assay was adopted to investigate the compounds’ inhibitory activities on Topo I. Different concentrations of the compounds, dissolved and diluted in DMSO, were added into the relaxation buffer (50 mM Tris, pH 7.5, 50 mM KCl, 10 mM MgCl2, 0.1 mM EDTA, 0.5 Mm dithiothreitol, and 0.05 mg/mL bovine serum albumin) containing 0.2 U Topo I (ThermoFisher, Waltham, MA, USA) and incubated at room temperature for 10 min. After that, 500 ng supercoiled pBR322 plasmid DNA (ThermoFisher, Waltham, MA, USA) was added and then incubated at 37 °C for another 30 min. Finally, the reactions were stopped with a stopping solution (5% sodium dodecyl sulfate, 0.0025% bromophenol blue, and 25% glycerol), and the mixtures were applied onto 0.8% agarose gel and subjected to electrophoresis for 1.5 h in Tris-Acetate-EDTA buffer. After being stained with GelRed (Biotium, Fremont, CA, USA), the gel was imagined with the imaging system (Biotop, Shanghai, China). […] The band density of the supercoiled DNA was quantified by the ImageJ software (version 1.53a, National Institutes of Health, Bethesda, MD, USA), and the inhibition activity is expressed as the percentage inhibition and calculated by formula: Inhibition % = [(A − B)/(C − B)] × 100%, where A is the band density of the tested samples, B is the band density of the negative control, and C is the band density of the blank control.

[2] = system: A549, HCT116, MDA-MB-231, HepG2, DLD-1, HL-7702; experiment: SRB cytotoxicity assay, panel of five human cancer cell lines and one human hepatocyte cell line; conditions: tested concentration of 200 μM
Method: (§3) The cytotoxicities of 1–29 were tested by an SRB assay on a panel of five human cancer cell lines and one human hepatocyte cell line.
(§4) The cytotoxic activities of the compounds against cancer cells were examined with a sulforhodamine B (SRB) colorimetric assay. Cells were seeded at a density of 5 × 10^3/well in 96-well plates for 24 h; various concentrations of the tested compounds, dissolved in DMSO and diluted with the complete medium, were added in the wells in triplicate and incubated for 48 h. After that, the cell viability was assessed with the SRB assay as we described before. The IC50 values were determined using the Reed and Muench method and are expressed as the mean ± SD of at least three independent measurements.

in vitro = conditions: human
Method: as §3, §4

DLD-1 cells = experiment: DNA content analysis (cell cycle, flow cytometry) in DLD-1; assay type: cell-based, human; conditions: 24 h; for percentage of cell population in the G2/M phase / percentage of cells in the G1/S (combined) phase: DLD-1, 2 μM
Method: Cells were seeded in 6-well plates and allowed to adhere for 24 h at 37 °C. After treatment with different concentrations of the samples for another 24 h, the cells were harvested and washed with PBS, and then, the DNA content analysis was conducted with a cell cycle staining kit (Multi sciences, Hangzhou, China), according to the manufacturer’s instructions. The fluorescence intensity of the cells was measured by flow cytometry (Beckman CytoFlex, Miami, FL, USA).

[3] = A549, SRB assay, 48 h, mean ± SD
[4] = HCT-116, SRB assay, 48 h, mean ± SD
[5] = MDA-MB-231, SRB assay, 48 h, mean ± SD
[6] = HepG2, SRB assay, 48 h, mean ± SD
[7] = DLD-1, SRB assay, 48 h, mean ± SD

Row | IC50 (DNA Topo I) [µM] | inhibition at 400 µM (DNA Topo I; at 400 μM) [%] | SMILES | cytotoxicity in all cell lines [2] | IC50 (A549; [3]) [µM] | IC50 (HCT116; [4]) [µM] | IC50 (MDA-MB-231; [5]) [µM] | IC50 (HepG2; [6]) [µM] | IC50 (DLD-1; [7]) [µM] | IC50 at 48 h ([1]; HL-7702 hepatocyte cell line) [µM] | other results
1 | > 400 | 38.6 | COc1ccc(-c2oc3cc(O[C@@H]4O[C@H](CO)[C@@H](O)[C@H](O)[C@H]4O)cc(O)c3c(=O)c2OC)cc1O [Compound 13] |  | > 200 | 139 ± 11.3 | > 200 | > 200 | 179 ± 5.94 | > 200 | IC50 at 48 h (in vitro): ≥ 50.5 µM
2 | 224 ± 27.2 |  | COc1cc(-c2oc3cc(O)c(OC)c(O)c3c(=O)c2OC)ccc1O [Compound 7] |  | 0.86 ± 0.03 | 0.43 ± 0.03 | 81.6 ± 7.43 | 28.4 ± 13.1 | 0.85 ± 0.02 | 11.4 ± 4.42 | percentage of cells in the G1/S phase (DLD-1 cells; DLD-1, 0.5 μM): 81.16%; percentage of cells in the G1/S phase (DLD-1 cells; DLD-1, 1 μM): 86.07%; percentage of cell population in the G2/M phase (DLD-1 cells): 75.75%; percentage of cells in the G1/S (combined) phase (DLD-1 cells): 24.26%
3 | 239 ± 31.4 |  | COc1ccc(-c2oc3c(O)c(OC)c(O)cc3c(=O)c2OC)cc1O [Compound 6] |  | 3.09 ± 0.28 | 0.59 ± 0.1 | > 200 | 34.6 ± 8.01 | 1.58 ± 0.07 | 23.9 ± 5.73 | percentage of cells in the G1/S phase (DLD-1 cells; DLD-1, 0.5 μM): 82.61%; percentage of cells in the G1/S phase (DLD-1 cells; DLD-1, 1 μM): 88.65%; percentage of cell population in the G2/M phase (DLD-1 cells): 76.49%; percentage of cells in the G1/S (combined) phase (DLD-1 cells): 22.91%
4 | > 400 | 10.9 | COc1ccc([C@@H]2CC(=O)c3ccc(O)c(O[C@@H]4O[C@H](CO)[C@@H](O)[C@H](O)[C@H]4O)c3O2)cc1O [Compound 16] |  | > 200 | > 200 | > 200 | > 200 | > 200 | > 200 | 
5 | > 400 | 28.6 | O=c1c(O[C@@H]2O[C@H](CO)[C@H](O)[C@H](O)[C@H]2O)c(-c2ccc(O)cc2)oc2cc(O)cc(O)c12 [Compound 11] | no cytotoxicity | > 200 | > 200 | > 200 | > 200 | > 200 | > 200 | 
6 | > 400 | 24.6 | COc1ccc(/C=C/C(=O)c2ccc(OC)cc2O)cc1 [Compound 3] |  | 136 ± 25 | 178 ± 6.11 | 167 ± 5.63 | > 200 | 117 ± 11.6 | > 200 | IC50 at 48 h (in vitro): ≥ 50.5 µM
7 | > 400 |  | COc1cc(OC)cc(-c2oc3cc(O[C@@H]4O[C@H](CO)[C@@H](O)[C@H](O)[C@H]4O)cc(O)c3c(=O)c2O)c1 [Compound 10] |  | > 200 | 59.3 ± 4.56 | > 200 | > 200 | 63 ± 4.08 | 114.8 ± 0.55 | percentage inhibition on Topo I activity (DNA Topo I; at 400 μM): no inhibition
8 | 178 ± 45.7 |  | CC(O)CC#CC#Cc1ccccc1 (stereo not shown) [Compound 22] |  | 125 ± 23.4 | 118 ± 5.7 | 146 ± 7.17 | 179 ± 3.62 | 142 ± 10.2 | 161 ± 2.18 | 

Row | SMILES | IC50 (DNA Topo I) [µM] | inhibition at 400 µM (DNA Topo I; at 400 μM) [%] | cytotoxicity in all cell lines [2] | IC50 (A549; [3]) [µM] | IC50 (HCT116; [4]) [µM] | IC50 (MDA-MB-231; [5]) [µM] | IC50 (HepG2; [6]) [µM] | IC50 (DLD-1; [7]) [µM] | IC50 at 48 h ([1]; HL-7702 hepatocyte cell line) [µM] | other results
9 | C=CCCCCC[C@H](O)[C@@H](O)[C@H](C#CC#CCCC)OC [Compound 29] | > 400 |  | no cytotoxicity |  |  |  |  |  |  | IC50 (A549; A549, 48 h): > 200 µM; IC50 (HCT116; HCT-116, 48 h): > 200 µM; IC50 (MDA-MB-231; MDA-MB-231, 48 h): > 200 µM; IC50 (HepG2; HepG2, 48 h): > 200 µM; IC50 (DLD-1; DLD-1, 48 h): > 200 µM; IC50 at 48 h [1]: > 200 µM
10 | CC#CC#CC#CC=CC1OCCCC1OC(C)=O (stereo not shown) [Compound 24] | 218 ± 50.8 |  | no cytotoxicity |  |  |  |  |  |  | IC50 (A549; A549, 48 h): > 200 µM; IC50 (HCT116; HCT-116, 48 h): > 200 µM; IC50 (MDA-MB-231; MDA-MB-231, 48 h): > 200 µM; IC50 (HepG2; HepG2, 48 h): > 200 µM; IC50 (DLD-1; DLD-1, 48 h): > 200 µM; IC50 at 48 h [1]: > 200 µM
